According to publication PMC9828254, “Identification of Dihydroorotate Dehydrogenase Inhibitors Using the Cell Painting Assay” (Chembiochem, 2022):
Entries after “also recorded” stand apart in the source; their conditions may differ. Blank lines part the entries; values can stand above or below the compound they belong to.

Columns and labels:
U2OS cells [1] = conditions: 100 μM uridine
Description: (§1) DHODH rescue assay: 2,000 HCT116 or U2OS cells per well were seeded in a clear 96‐well plate and incubated as described above overnight prior to treatment. The next day, the medium was replaced by fresh compound or DMSO containing medium supplemented with control solvent or uridine (100 μM), OA (1.5 mM) or DHO (1.5 mM). Cell growth was monitored every 2 h for a total of 96 h after treatment start using an IncuCyte S3 (Essen BioScience). The cell confluence was quantified as a measure of cell growth using the IncuCyte S3 software (Essen BioScience).

HCT116 cells = test: DHODH rescue assay / cell growth (cell confluence, IncuCyte); assay type: cell-based; conditions: for rescue of cell growth by orotate (OA): 1.5 mM OA
Description: Figure 3 Influence of compounds on cell growth and DHODH activity. (A–C) HCT116 cells were treated with the compounds or DMSO as a control in presence or absence of 100 μM uridine. Cell confluence as a measure of cell growth was monitored over 96 h using IncuCyte ZOOM/S3. (A) Brequinar (BRQ). (B) Myxothiazol (MXT). […] (D–E) In vitro DHODH activity. […] (F) Influence of compound 7 on complex III activity. All data are mean values of three biological replicates (n=3)±SD.
as §1

U2OS cells [2] = test: Cell Painting assay (CPA), morphological fingerprints; assay type: cell-based, human
Description: Therefore, the definition of bioactivity clusters is crucial for proper hypothesis generation for uncharacterized small molecules that are subjected to the CPA and requires thorough inspection of the CPA fingerprints of reference compounds.[[2b], [9], [10]] […] For the CPA, human osteosarcoma U2OS cells were treated with compounds for 20 h prior to detection of cellular components and compartments (DNA, RNA, mitochondria, Golgi, endoplasmic reticulum (ER), actin, plasma membrane) using six different dyes. Morphological features are extracted and differences to the control (cells that were treated with DMSO) are expressed as Z scores. The CPA fingerprints used in this study compile Z scores for 579 features. […] Myxothiazol is an inhibitor of complex III of the mitochondrial electron transport chain.[15] Whereas de novo biosynthesis of pyrimidines takes place in the cytosol, DHODH is the only enzyme of the pyrimidine biosynthesis pathway that is localized at the inner mitochondrial membrane.[16] DHODH catalyzes the oxidation of dihydroorotate (DHO) to orotate by transferring electrons from DHO via the cofactor FMN to ubiquinone to yield ubiquinol. Electrons from ubiquinol are transferred further to complex III (cytochrome b,c1 complex), thereby recycling […] that is required for DHODH activity. In this way, pyrimidine biosynthesis is tightly coupled to the activity of complex III, which ensures that pyrimidine nucleotides and, thus, DNA and RNA are synthesized only if cells are supplied with sufficient amount of ATP via the mitochondrial respiratory chain. Alternatively, cells can replenish their pyrimidine pools via the salvage pathway by uptake of circulating pyrimidines.[5] Whereas proliferating cells rely on de novo pyrimidine biosynthesis to meet the high demand for nucleotides, the salvage pathway is used by resting and fully differentiated cells.[5]
The cell painting assay: The Cell Painting assay[25] was performed as described previously.[[9a], [26]] U2OS medium (5 μL) was added to each well of a 384‐well plate (PerkinElmer CellCarrier‐384 Ultra) prior to addition of 1,600 U2OS cells per well and incubation for 4 h at 37 °C. Standard stock concentration of compounds was 10 mM. […] Compounds were added to the cells using the Echo 520 acoustic dispenser (Labcyte) followed by incubation for 20 h at 37 °C. Subsequently, mitochondria were stained with 0.1 μg/μL Mito Tracker Deep Red for 30 min at 37 °C in the dark. Cells were fixed using 3.7 % formaldehyde (in PBS) for 20 min at 37 °C in the dark. Cells were washed three times using PBS before permeabilization using Triton X‐100 for 15 min 37 °C in the dark. After three additional washing steps, 25 μL of a staining solution were added to each well, which contained 1 % BSA, 5 μL/mL Phalloidin (Alexa594 conjugate, Thermo Fisher Scientific, A12381), 25 μg/mL Concanavalin A (Alexa488 conjugate, Thermo Fisher Scientific, Cat. No. C11252), 5 μg/mL Hoechst 33342 (Sigma, Cat. No. B2261‐25 mg), 1.5 μg/mL WGA‐Alexa594 conjugate (Thermo Fisher Scientific, Cat. No. W11262) and 1.5 μM SYTO 14 solution (Thermo Fisher Scientific, Cat. No. S7576). Plates were incubated for 30 min at 37 °C in the dark and washed three times with PBS. Plates were sealed and centrifuged for 1 min at 500 rpm. The plates were prepared in triplicates with shifted layouts to reduce plate effects and imaged using a Micro XL High‐Content Screening System (Molecular Devices) in 5 channels (DAPI: Ex350‐400/Em410‐480; FITC: Ex470‐500/Em510‐540; Spectrum Gold: Ex520‐545/Em560‐585; TxRed: Ex535‐585/Em600‐650; Cy5: Ex605‐650/Em670‐715) with 9 sites per well and 20× magnification (binning 2).
Generated images were processed with the CellProfiler package[27] (https://cellprofiler.org, version 3.0.0) on a computing cluster of the Max Planck Society to extract 1716 cell features. The data was then further aggregated as medians per well (9 sites→1 well), then over the three replicates.

Human DHODH = biological target: T1, Human DHODH (Homo sapiens, UniProt Q02127); test: DHODH enzymatic assay (DCPIP reduction); assay type: biochemical; conditions: 10 μM compound; for inhibition at 10 µM: 30 min preincubation, read-out: reduction (inhibition) of in vitro DHODH activity
T1 construct: 40 μL of purified DHODH (aa31–395, final concentration: 1.25 μg/mL); made in house; host or cells: E. coli BL21 (DE3)
T1 sequence (Q02127 31-395): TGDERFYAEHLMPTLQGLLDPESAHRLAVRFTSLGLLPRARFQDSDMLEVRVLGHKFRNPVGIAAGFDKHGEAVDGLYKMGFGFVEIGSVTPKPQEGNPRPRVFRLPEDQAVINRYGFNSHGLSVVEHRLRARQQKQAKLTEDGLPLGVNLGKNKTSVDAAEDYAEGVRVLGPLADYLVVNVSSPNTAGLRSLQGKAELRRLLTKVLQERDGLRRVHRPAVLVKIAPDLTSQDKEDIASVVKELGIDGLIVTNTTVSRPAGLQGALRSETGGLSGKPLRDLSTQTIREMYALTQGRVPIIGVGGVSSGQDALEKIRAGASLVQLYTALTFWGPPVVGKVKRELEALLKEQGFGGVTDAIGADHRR
Description: Expression was induced by adding 0.8 mM IPTG (AppliChem, A1008,0025) and temperature was reduced to 28 °C for 6 hours. […] The clarified supernatant was loaded to the column and washed with PBS (1 mL/min) for 2 h, followed by elution with 10 mM L‐glutathione (Sigma Aldrich, G4251) in PBS. The GST tag was not removed for further analysis. Factions containing hDHODH‐GST protein were pooled, concentrated with centrifugal filters (Ultra‐50 K, Merck Millipore, UFC905096) and shock‐frozen for further analysis. Protein concentration was determined by Bradford measurement.
DHODH enzymatic assay: Enzymatic activity of DHODH was assessed by monitoring the reduction of 2,6‐dichlorophenolinindophenol (DCPIP), which is coupled to the oxidation of dihydroorotate by DHODH. […] The reaction was initiated by adding 50 μL mastermix (2 mM L‐dihydroorotic acid, 0.2 mM decylubiquonone, 0.12 mM 2,6 dichlorphenolindophenol (DCPIP) in assay buffer). DCPIP reduction was monitored at λ=600 nm using Tecan Spark plate reader for 20 min.

[3] = 96 h, 2, 6, 7 at 10 μM, 4 at 30 μM
[4] = Homo sapiens, U2OS, Conc 10 μM, 20 h, read-out: Cell count [%]
[5] = concentration not given, similar if biosimilarity >75 %

inhibition at 10 µM (Human DHODH): > 50%
SMILES: COc1ccc2[nH]c3c(c2c1)CCO[C@]31CC[C@@]2(Oc3c(Cl)c(OC)cc(OC)c3C2=O)[C@H](C)C1 [Compound 3]
viability at 3 µM (U2OS cells [2]; Homo sapiens, U2OS, Conc 3 μM, 20 h, read-out: Cell count [%]): 94%

influence on in vitro DHODH activity, in words (Human DHODH): only moderately inhibited
inhibition at 10 µM (Human DHODH): 27 to 44%
SMILES: COc1cc(OC)c2c(c1Cl)O[C@@]1(CC[C@@]3(C[C@H]1C)OCCc1c3[nH]c3ccc(C)cc13)C2=O [Compound 4]
rescue of cell growth by orotate (OA) (HCT116 cells; [3]): relieved
viability at 10 µM (U2OS cells [2]; [4]): 81%

The remaining lines, values behind:

SMILES: Cc1c(-c2ccc(-c3ccccc3F)cc2)nc2ccc(F)cc2c1C(=O)O [Brequinar, brequinar]
rescue of cell growth by uridine (U2OS cells [1]): completely rescue
rescue of cell growth by uridine (HCT116 cells; 100 μM uridine, 96 h): completely rescue; also recorded: full cell growth recovery
rescue of cell growth by dihydroorotate (DHO) (HCT116 cells; 1.5 mM DHO, 96 h, 2, 6, 7 at 10 μM, 4 at 30 μM): could not restore
rescue of cell growth by orotate (OA) (HCT116 cells; [3]): rescued normal cell proliferation
Ind [%] (induction) (U2OS cells [2]; Conc 10 μM, 20 h, percentage of significantly altered features): 36%
viability at 10 µM (U2OS cells [2]; [4]): 89%
biosimilarity to the fingerprint of methotrexate (U2OS cells [2]; full fingerprints, Figure S3A and S3B): lack of biosimilarity
BioSim [%] (biosimilarity) to myxothiazol (U2OS cells [2]; reference fingerprint myxothiazol 10 μM, compound Conc 10 μM): 84%

SMILES: Cc1c(Oc2ccc(F)cc2)c(OC(C)C)nn1-c1ccc(C2CC2)cn1 [Compound 1]
Ind [%] (induction) (U2OS cells [2]; Conc 5 μM, 20 h): 10%
viability at 5 µM (U2OS cells [2]; Homo sapiens, U2OS, Conc 5 μM, 20 h, read-out: Cell count [%]): 105%
biosimilarity (BioSim) to IPP/CNRS-A017 (U2OS cells [2]; [5]): not biosimilar
biosimilarity (BioSim) to brequinar (U2OS cells [2]; [5]): not biosimilar
BioSim [%] (biosimilarity) to brequinar (U2OS cells [2]; reference fingerprint brequinar 10 μM, compound Conc 5 μM): 39%

SMILES: CN1C(=O)[C@@]2(C(=O)N(Cc3ccncc3)c3ccc(OC(F)(F)F)cc32)c2ccccc21 [Compound 2]
influence on in vitro DHODH activity, in words (Human DHODH): only moderately inhibited
inhibition at 10 µM (Human DHODH): 27 to 44%
rescue of cell growth by orotate (OA) (HCT116 cells; [3]): relieved
viability at 10 µM (U2OS cells [2]; [4]): 90%
